Results published in PubChem BioAssay (NCI).
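Step 1: Grow cells in 96-well plates. Step 2: Expose to compound for 48 hours at 5 concentrations. Step 3: Interpolate endpoints linearly; if unreached, use highest concentration. At the GI50, growth is halved. TGI denotes the concentration required for complete inhibition of growth.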

What was measured:
Assay in all cases: NCI-60 cell line screen, 48 h
RXF-631 renal = test system: RXF-631 renal
HOP-18 NSCLC = test system: HOP-18 NSCLC
XF 498 CNS = test system: XF 498 CNS
KM20L2 colon = test system: KM20L2 colon
LXFL 529 NSCLC = test system: LXFL 529 NSCLC
DMS 114 small cell lung = test system: DMS 114 small cell lung
DMS 273 small cell lung = test system: DMS 273 small cell lung
M19-MEL melanoma = test system: M19-MEL melanoma
MDA-N = test system: MDA-N

SMILES	TGI (RXF-631 renal)	TGI (HOP-18 NSCLC)	TGI (XF 498 CNS)	TGI (KM20L2 colon)	TGI (LXFL 529 NSCLC)	TGI (DMS 114 small cell lung)	TGI (DMS 273 small cell lung)	TGI (M19-MEL melanoma)	TGI (MDA-N)	GI50 (KM20L2 colon)	GI50 (LXFL 529 NSCLC)	GI50 (MDA-N)
O=C(O)CCC(NC(=O)c1ccccc1)C(=O)O (stereo unspecified)	> 100 µM	> 100 µM	> 100 µM	> 100 µM	> 100 µM	> 100 µM	> 100 µM	–	–	–	–	–
O=C1C2C=CC(C2)C(c2ccc(O)cc2)N1O (stereo unspecified)	–	–	> 100 µM	> 100 µM	> 100 µM	–	–	> 100 µM	–	–	–	–
Cn1ccc2c(C(=O)c3ccccc3)cccc2c1=O	–	–	> 100 µM	–	> 100 µM	> 100 µM	> 100 µM	> 100 µM	–	–	–	–
CC(=O)OCC(=O)[C@@]12OC(C)(C)O[C@@H]1C[C@H]1[C@@H]3CC=C4C[C@@H](O)CC[C@]4(C)[C@H]3CC[C@@]12C	–	–	–	–	–	–	–	–	> 100 µM	–	–	–
COc1ccccc1C1c2cc3c(cc2OC(O)(CO)C1C(=O)O)OCO3 (stereo unspecified) (tested in a mixture with another compound)	–	> 100 µM	–	> 100 µM	> 100 µM	> 100 µM	> 100 µM	> 100 µM	–	–	–	–
Cc1ccc(NC(=O)C(=O)CC(=O)c2c(C)n([O-])c3ccccc3[n+]2=O)cc1	> 100 µM	> 100 µM	–	71.8 µM	> 100 µM	38.5 µM	59.6 µM	36.1 µM	–	–	–	–
CN(C)C=[N+]=[N-]	–	> 100 µM	> 100 µM	> 100 µM	> 100 µM	> 100 µM	> 100 µM	> 100 µM	–	–	–	–
COc1cc2c(cc1OC)[C@H]1C(COC(=O)c3ccccc3)CSC(=Nc3ccccc3)N1CC2 (stereo partly specified)	–	> 100 µM	> 100 µM	> 100 µM	> 100 µM	> 100 µM	> 100 µM	> 100 µM	–	–	–	–
NCCN.NCCN.O=C([O-])CCl.O=C([O-])CCl.[Co+3].[O-][Cl+3]([O-])([O-])[O-]	–	–	–	> 100 µM	> 100 µM	–	–	–	–	> 100 µM	> 100 µM	–
C[N+]1(C)C/C(=C\c2ccccc2)C(=O)/C(=C/c2ccccc2)C1	> 100 µM	> 100 µM	> 100 µM	> 100 µM	> 100 µM	> 100 µM	> 100 µM	> 100 µM	–	–	–	–
Nc1c([N+](=O)[O-])cc2c3c(cccc13)CC2	–	–	–	–	–	–	–	–	> 100 µM	–	–	–
CN1C(=O)C(CC(=O)O)NC1=S (stereo unspecified)	–	–	–	–	–	–	–	–	> 100 µM	–	–	–
CC(C)c1c(O)ccc2c1CCC1C(C)(C)CCCC21C (stereo unspecified)	–	–	–	–	–	–	–	–	32.3 µM	–	–	–
Cc1c(C(=O)CC(=O)C(=O)Nc2ccc(Cl)cc2)[n+](=O)c2ccccc2n1[O-]	–	> 100 µM	> 100 µM	> 100 µM	> 100 µM	> 100 µM	> 100 µM	> 100 µM	–	–	–	–
O=[N+]([O-])c1cc(C2SCc3nc4ccccc4n32)ccc1Cl (stereo unspecified)	–	> 100 µM	–	–	99.7 µM	54.3 µM	58 µM	53.9 µM	–	–	–	–
O=C(O)CNS(=O)(=O)c1ccc(NC(=O)CI)cc1	32.5 µM	> 100 µM	29.5 µM	54.5 µM	20.2 µM	–	38.8 µM	> 100 µM	–	–	–	–
O=C(O)c1cc(-c2ccncc2)nc2ccccc12	–	–	–	–	–	–	–	–	> 100 µM	–	–	–
COc1ccc(S(=O)(=O)N/N=C/c2cc(I)cc([N+](=O)[O-])c2O)cc1OC	> 100 µM	68.5 µM	51.1 µM	> 100 µM	70.3 µM	–	> 100 µM	99.2 µM	–	–	–	–
Cc1[nH]c(=O)n2c(C)nnc2c1C(=O)Nc1cc(Cl)cc(Cl)c1	–	–	–	–	> 100 µM	–	–	91.9 µM	–	–	–	–
C[C@]12CCC(=O)C(O)=C1CC[C@@H]1C2CC[C@]2(C)Nc3c(cnn3-c3ccccc3)CC12 (stereo partly specified)	> 100 µM	–	> 100 µM	> 100 µM	> 100 µM	–	> 100 µM	> 100 µM	–	–	–	–

SMILES	TGI (RXF-631 renal)	TGI (HOP-18 NSCLC)	TGI (XF 498 CNS)	TGI (KM20L2 colon)	TGI (LXFL 529 NSCLC)	TGI (DMS 114 small cell lung)	TGI (DMS 273 small cell lung)	TGI (M19-MEL melanoma)	TGI (MDA-N)	GI50 (KM20L2 colon)	GI50 (LXFL 529 NSCLC)	GI50 (MDA-N)
COc1ccc2c(c1)Oc1cc(O)ccc1[C@@H]2c1ccccc1C(=O)NC(C)c1ccccc1 (stereo partly specified)	–	–	–	31.4 µM	30.1 µM	32.3 µM	28.2 µM	32.2 µM	–	–	–	–
COc1ccc(CC(=O)NCCc2ccc(OC)c(OC)c2)cc1Br	–	–	> 100 µM	> 100 µM	> 100 µM	> 100 µM	> 100 µM	–	–	–	–	–
Cc1cc(NS(=O)(=O)c2ccc(NC(=O)c3ccc(Cl)c4c(Nc5ccc(S(=O)(=O)N=C(N)N)cc5)c5ccccc5nc34)cc2)no1	–	–	98.8 µM	> 100 µM	> 100 µM	> 100 µM	–	> 100 µM	–	–	–	–
O=C(NCCCCCCNC(=O)OCCSCCn1cc(C(=O)NC(=O)OCc2ccccc2)c(=O)[nH]c1=O)OCCSCCn1cc(C(=O)NC(=O)OCc2ccccc2)c(=O)[nH]c1=O	> 100 µM	–	> 100 µM	> 100 µM	> 100 µM	> 100 µM	> 100 µM	> 100 µM	–	–	–	–
Fc1ccccc1C1SCc2nc3ccccc3n21 (stereo unspecified)	> 100 µM	–	–	–	> 100 µM	> 100 µM	> 100 µM	> 100 µM	–	–	–	–
CC(C)(CN1CCCCC1)C(=O)/C=C/c1ccc(Cl)cc1	29.9 µM	23.1 µM	–	7.48 µM	9.75 µM	15.4 µM	13.3 µM	23.4 µM	–	–	–	–
O=c1nc(NC(c2ccccc2)(c2ccccc2)c2ccccc2)ccn1CCNCCn1ccc(NC(c2ccccc2)(c2ccccc2)c2ccccc2)nc1=O	–	43.8 µM	31.9 µM	30.1 µM	26.2 µM	13.5 µM	21.6 µM	21 µM	–	–	–	–
COc1ccc(C(=O)/C=C/c2ccc3c(c2)OCO3)c(OCc2ccccc2)c1	–	–	–	–	–	–	–	–	> 100 µM	–	–	–
CNC(=O)CC1NC(=O)c2csc(n2)-c2ccc(-c3nc(C4=NC(C(=O)N5CCCC5C(N)=O)CO4)cs3)nc2-c2csc(n2)-c2csc(n2)C(C(C)C)NC(=O)CNC(=O)c2csc(n2)C(C(C)C)NC(=O)c2nc1sc2C (stereo unspecified)	–	–	–	–	–	–	–	–	–	–	–	< 1 nM
NC1=C(c2nc(-c3ccccc3)cs2)C(c2ccc(Br)cc2)c2c(c3ccccc3oc2=O)O1 (stereo unspecified)	–	–	–	–	–	–	–	–	> 150 µg/mL	–	–	63.7 µg/mL
CN(C)CCCN1c2ccccc2C(C)(C)c2ccccc21	–	–	–	–	–	–	–	–	27.6 µM	–	–	–
O=C1CCCC(=O)N1CCc1c[nH]c2ccccc12	> 100 µM	–	> 100 µM	> 100 µM	> 100 µM	> 100 µM	> 100 µM	> 100 µM	–	–	–	–
COc1cc(C(O)C(=O)c2nc3ccc([N+](=O)[O-])cc3[nH]c2=O)ccc1O (stereo unspecified)	–	–	> 100 µM	> 100 µM	> 100 µM	> 100 µM	> 100 µM	> 100 µM	–	–	–	–
O=C(c1ccccc1)[C@@H]1C[C@H](Sc2ccccc2)c2cc(Cl)ccc2N1	83.1 µM	> 100 µM	46.9 µM	70.3 µM	77.5 µM	82.6 µM	84 µM	> 100 µM	–	–	–	–
Cc1ccc([N+](=O)[O-])cc1NC(=O)c1cccc([N+](=O)[O-])c1O	–	–	63.2 µM	> 100 µM	78.1 µM	43.2 µM	76.4 µM	56 µM	–	–	–	–
Cc1cc(Cc2cc(C)cc(C(C)(C)C)c2O)c(O)c(Cc2cc(C)cc(C(C)(C)C)c2O)c1	–	–	–	–	–	–	–	–	11.9 µM	–	–	–
C/C=C1/CCC2c3[nH]c4ccccc4c3CCN2C1 (stereo unspecified)	–	–	> 100 µM	> 100 µM	> 100 µM	> 100 µM	> 100 µM	> 100 µM	–	–	–	–
CCCC/C=C1\CCC(C)(CN(C)C)C1=O (stereo unspecified)	–	> 100 µM	–	> 100 µM	> 100 µM	> 100 µM	–	29 µM	–	–	–	–
COC(=O)[C@]12CC=C3O[C@@H]4OC5(CCCCC5)O[C@@H]4C3[C@@H]1C(=O)CCC2=O (stereo partly specified)	> 100 µM	> 100 µM	> 100 µM	> 100 µM	> 100 µM	> 100 µM	> 100 µM	–	–	–	–	–
